The results in this text go back to patent US10287255B2, “Compounds as histone deacetylase 6 inhibitors and pharmaceutical compositions comprising the same” (CHONG KUN DANG PHARMACEUTICAL CORP., priority 2014, dated 2019).

One experiment concerns the target T1, human recombinant HDAC6 (Homo sapiens, UniProt Q9UBN7).
T1 construct: purchased Calbiochem 382180
T1 sequence (Q9UBN7 1-1215): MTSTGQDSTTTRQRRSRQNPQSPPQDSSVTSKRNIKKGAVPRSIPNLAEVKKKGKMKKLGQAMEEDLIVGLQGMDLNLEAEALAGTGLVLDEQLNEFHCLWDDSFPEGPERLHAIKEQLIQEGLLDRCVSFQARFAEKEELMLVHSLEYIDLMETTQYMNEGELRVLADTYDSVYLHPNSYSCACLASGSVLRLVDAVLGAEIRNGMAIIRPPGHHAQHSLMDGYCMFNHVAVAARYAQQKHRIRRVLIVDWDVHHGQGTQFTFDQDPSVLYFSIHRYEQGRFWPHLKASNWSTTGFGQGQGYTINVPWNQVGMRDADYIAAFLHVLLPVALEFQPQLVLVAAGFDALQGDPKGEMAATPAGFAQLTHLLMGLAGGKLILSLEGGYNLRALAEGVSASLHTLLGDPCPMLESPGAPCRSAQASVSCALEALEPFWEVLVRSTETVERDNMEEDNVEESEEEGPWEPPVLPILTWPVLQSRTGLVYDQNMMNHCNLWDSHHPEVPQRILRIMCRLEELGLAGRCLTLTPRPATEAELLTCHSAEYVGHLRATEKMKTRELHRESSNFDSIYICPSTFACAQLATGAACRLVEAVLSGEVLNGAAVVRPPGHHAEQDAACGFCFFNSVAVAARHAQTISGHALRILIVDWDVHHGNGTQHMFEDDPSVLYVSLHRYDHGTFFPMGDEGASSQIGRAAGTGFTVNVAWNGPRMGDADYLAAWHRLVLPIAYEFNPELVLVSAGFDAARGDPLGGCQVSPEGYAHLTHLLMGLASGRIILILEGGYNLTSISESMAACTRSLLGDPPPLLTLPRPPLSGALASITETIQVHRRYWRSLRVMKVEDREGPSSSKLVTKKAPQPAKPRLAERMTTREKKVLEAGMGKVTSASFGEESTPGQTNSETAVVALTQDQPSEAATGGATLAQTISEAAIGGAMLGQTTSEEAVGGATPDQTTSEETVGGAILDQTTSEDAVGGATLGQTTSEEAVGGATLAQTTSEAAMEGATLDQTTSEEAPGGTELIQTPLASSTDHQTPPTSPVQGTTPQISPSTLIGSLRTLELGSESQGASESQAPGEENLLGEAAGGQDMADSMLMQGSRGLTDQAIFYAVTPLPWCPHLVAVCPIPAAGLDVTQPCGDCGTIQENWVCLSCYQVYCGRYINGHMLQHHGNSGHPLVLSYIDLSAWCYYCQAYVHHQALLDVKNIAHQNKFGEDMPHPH
Nature of the experiment: HDAC6 enzyme activity inhibition assay (in vitro, fluorimetric). Format: biochemical. Conditions: for HDAC6 selectivity (fold): HDAC6 selectivity over HDAC1; for IC50: human recombinant HDAC6, fluorimetric kit, same protocol as HDAC1. The essentials: (§1)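 IC50 values derive from fluorescence (Ex 360, Em 460) after developer treatment (30 min) of reactions of recombinant human HDAC1 or HDAC6 with 10 μM Fluor de Lys-SIRT1 substrate (60 min, 30 °C). Compounds were serially diluted 5-fold; 0.3 μg enzyme was used for HDAC1, with HDAC6 tested identically.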

A further experiment concerns the target T2, human recombinant HDAC1 (Homo sapiens, UniProt Q13547).
T2 construct: purchased Enzo Life Science BML-SE456
Nature of the experiment: HDAC1 enzyme activity inhibition assay (in vitro, fluorimetric). Format: biochemical. As to conditions: human recombinant HDAC1, fluorimetric kit, 30° C. 60 minutes. The procedure, abridged: as §1

T2 sequence (Q13547 whole entry): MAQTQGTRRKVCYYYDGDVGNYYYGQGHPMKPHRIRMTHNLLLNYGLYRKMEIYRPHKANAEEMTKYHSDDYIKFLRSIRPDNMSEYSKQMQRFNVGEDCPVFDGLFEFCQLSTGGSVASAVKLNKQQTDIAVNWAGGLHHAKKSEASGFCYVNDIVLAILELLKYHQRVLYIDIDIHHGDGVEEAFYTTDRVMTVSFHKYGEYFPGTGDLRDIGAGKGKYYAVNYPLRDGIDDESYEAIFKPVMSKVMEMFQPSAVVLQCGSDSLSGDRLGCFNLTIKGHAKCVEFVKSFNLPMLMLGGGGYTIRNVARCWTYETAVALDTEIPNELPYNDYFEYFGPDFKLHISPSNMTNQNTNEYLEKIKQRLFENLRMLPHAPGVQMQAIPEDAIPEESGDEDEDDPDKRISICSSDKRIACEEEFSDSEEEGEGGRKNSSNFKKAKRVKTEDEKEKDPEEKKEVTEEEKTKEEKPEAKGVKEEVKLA

For the molecule `C[C@@H]1CN(Cc2ccc(C(=O)NO)cn2)C[C@H](C)N1Cc1ccccc1` [Compound 194, 6-(((3R,5S)-4-benzyl-3,5-dimethylpiperazin-1-yl)methyl)-N-hydroxynicotinamide], on human recombinant HDAC6, the “HDAC6 selectivity (fold)” value came out at 303 fold and the IC50 worked out at 82 nM. The IC50 on human recombinant HDAC1 turned out to be 24800 nM.
`C[C@@H]1CN(C(=O)c2cccc(C3=CCOCC3)c2)C[C@H](C)N1Cc1ccc(C(=O)NO)cc1` [Compound 259, 4-(((2S,6R)-4-(3-(3,6-dihydro-2H-pyran-4-yl)benzoyl)-2,6-dimethylpiperazin-1-yl)methyl)-N-hydroxybenzamide]: on human recombinant HDAC6, the “HDAC6 selectivity (fold)” value was 6 fold and the IC50 amounted to 400 nM. Moreover, the IC50 on human recombinant HDAC1 worked out at 2500 nM.
For `C[C@@H]1CN(Cc2cccc(CN3CCCC3)c2)C[C@H](C)N1Cc1ccc(/C=C/C(=O)NO)cc1` [Compound 475, (E)-3-(4-(((2S,6R)-2,6-dimethyl-4-(3-(pyrrolidin-1-ylmethyl)benzyl)piperazin-1-yl)methyl)phenyl)-N-hydroxyacrylamide], the “HDAC6 selectivity (fold)” value on human recombinant HDAC6 is 7 fold. Further, the figures for the half-maximal inhibitory concentration (IC50) on human recombinant HDAC6 and on human recombinant HDAC1 were 114 nM and 800 nM, respectively.
For `C[C@@H]1CN(C(=O)Nc2ccccc2)C[C@H](C)N1Cc1ccc(C(=O)NO)cc1` [Compound 162, (3R,5S)-4-(4-(hydroxycarbamoyl)benzyl)-3,5-dimethyl-N-phenylpiperazine-1-carboxamide], the “HDAC6 selectivity (fold)” value at human recombinant HDAC6 is recorded as 5 fold. The IC50 on human recombinant HDAC6 stood at 79 nM; on human recombinant HDAC1, 400 nM.
For `CC(C)CCN1[C@H](C)CN(Cc2ccc(C(=O)NO)cc2)C[C@@H]1C` [Compound 270, N-hydroxy-4-(((3R,5S)-4-isopentyl-3,5-dimethylpiperazin-1-yl)methyl)benzamide], in that order: above 5 fold, 2220 nM and above 10000 nM.
For `Cc1cccc(NC(=O)N2C[C@@H](C)N(Cc3ccc(C(=O)NO)cc3)[C@@H](C)C2)c1` [Compound 167, (3R,5S)-4-(4-(hydroxycarbamoyl)benzyl)-3,5-dimethyl-N-m-tolylpiperazine-1-carboxamide], in that order: 10 fold, 77 nM and 800 nM.
On to `C[C@@H]1CN(Cc2ccc(C(=O)NO)cc2)C[C@H](C)N1Cc1ccc(CN2CC(F)(F)C2)cc1` [Compound 412, 4-(((3R,5S)-4-(4-((3,3-difluoroazetidin-1-yl)methyl)benzyl)-3,5-dimethylpiperazin-1-yl)methyl)-N-hydroxybenzamide], for which, at human recombinant HDAC6, the “HDAC6 selectivity (fold)” value is given as 36 fold and the half-inhibitory concentration (IC50) came to 32 nM. Moreover, at human recombinant HDAC1, the IC50 was 1100 nM.
Regarding `C[C@@H]1CN(Cc2ccc(C(=O)NO)c(O)c2)C[C@H](C)N1Cc1ccccc1` [Compound 652, 4-(((3R,5S)-4-benzyl-3,5-dimethylpiperazin-1-yl)methyl)-N,2-dihydroxybenzamide], on human recombinant HDAC6, the “HDAC6 selectivity (fold)” value is recorded as above 11 fold and the IC50 is 880 nM. Further, at human recombinant HDAC1, the half-inhibitory concentration (IC50) was above 10000 nM.
Regarding `C[C@@H]1CN(Cc2ccc(C(=O)NO)cc2)C[C@H](C)N1C(=O)Cc1ccccc1` [Compound 146, 4-(((3R,5S)-3,5-dimethyl-4-(2-phenylacetyl)piperazin-1-yl)methyl)-N-hydroxybenzamide], at human recombinant HDAC6, the “HDAC6 selectivity (fold)” value came to 314 fold. Besides, the IC50 at human recombinant HDAC6 was 19 nM; on human recombinant HDAC1, 6000 nM.
For the molecule `C[C@@H]1CN(Cc2ccc(C(=O)NO)cc2)C[C@H](C)N1C(=O)c1ccccn1` [Compound 123, 4-(((3R,5S)-3,5-dimethyl-4-picolinoylpiperazin-1-yl)methyl)-N-hydroxybenzamide], on human recombinant HDAC6, the “HDAC6 selectivity (fold)” value came to 2584 fold and the concentration for half-maximal inhibition (IC50) came to 6 nM. The IC50 at human recombinant HDAC1 came to 15500 nM.
Consider `C[C@@H]1CN(C(=O)c2ccccc2-c2cccnc2)C[C@H](C)N1Cc1ccc(C(=O)NO)cc1` [Compound 279, 4-(((2S,6R)-2,6-dimethyl-4-(2-(pyridin-3-yl)benzoyl)piperazin-1-yl)methyl)-N-hydroxybenzamide], for which, on human recombinant HDAC6, the “HDAC6 selectivity (fold)” value is listed as above 13 fold and the half-inhibitory concentration (IC50) was 769 nM. Moreover, the IC50 at human recombinant HDAC1 was above 10000 nM.
For `C[C@@H]1CN(S(=O)(=O)c2cccnc2)C[C@H](C)N1Cc1ccc(C(=O)NO)cc1` [Compound 113, 4-(((2S,6R)-2,6-dimethyl-4-(pyridin-3-ylsulfonyl)piperazin-1-yl)methyl)-N-hydroxybenzamide], in that order: 27 fold, 104 nM and 2800 nM.
For the molecule `C[C@@H]1CN(Cc2cccc(CN3CCCC3)c2)C[C@H](C)N1Cc1ccc(C(=O)NO)cc1` [Compound 479, 4-(((2S,6R)-2,6-dimethyl-4-(3-(pyrrolidin-1-ylmethyl)benzyl)piperazin-1-yl)methyl)-N-hydroxybenzamide], on human recombinant HDAC6, the “HDAC6 selectivity (fold)” value was found to be 12 fold and the 50% inhibitory concentration (IC50) turned out to be 433 nM. Also, the half-maximal inhibitory concentration (IC50) on human recombinant HDAC1 worked out at 5300 nM.
Regarding `C[C@@H]1CN(Cc2ccc(C(=O)NO)cc2)C[C@H](C)N1Cc1ccccc1CN1CCOCC1` [Compound 457, 4-(((3R,5S)-3,5-dimethyl-4-(2-(morpholinomethyl)benzyl)piperazin-1-yl)methyl)-N-hydroxybenzamide], at human recombinant HDAC6, the “HDAC6 selectivity (fold)” value is 2 fold and the half-inhibitory concentration (IC50) came to 146 nM. In addition, at human recombinant HDAC1, the IC50 was 300 nM.
For the molecule `C[C@@H]1CN(S(=O)(=O)c2ccccc2Cl)C[C@H](C)N1Cc1ccc(C(=O)NO)cc1` [Compound 110, 4-(((2S,6R)-4-((2-chlorophenyl)sulfonyl)-2,6-dimethylpiperazin-1-yl)methyl)-N-hydroxybenzamide], at human recombinant HDAC6, the “HDAC6 selectivity (fold)” value amounted to 59 fold and the concentration for half-maximal inhibition (IC50) worked out at 85 nM. Further, on human recombinant HDAC1, the IC50 stood at 5000 nM.
Turning to `C[C@@H]1CN(Cc2ccc(N(C)C)cc2)C[C@H](C)N1Cc1ccc(C(=O)NO)cc1` [Compound 299, 4-(((2S,6R)-4-(4-(dimethylamino)benzyl)-2,6-dimethylpiperazin-1-yl)methyl)-N-hydroxybenzamide], the “HDAC6 selectivity (fold)” value at human recombinant HDAC6 stood at 5 fold. Besides, the results for the half-inhibitory concentration (IC50) on human recombinant HDAC6 and at human recombinant HDAC1 were 243 nM and 1200 nM, respectively.
For `C[C@@H]1CN(Cc2ccc(C(=O)NO)cc2)C[C@H](C)N1Cc1cccc(CN2CCN(CC(C)(C)F)CC2)c1` [Compound 387, 4-(((3R,5S)-4-(3-((4-(2-fluoro-2-methylpropyl)piperazin-1-yl)methyl)benzyl)-3,5-dimethylpiperazin-1-yl)methyl)-N-hydroxybenzamide], in that order: above 118 fold, 85 nM and above 10000 nM.
For `C[C@@H]1CN(Cc2ccc(C(=O)NO)nc2)C[C@H](C)N1Cc1cccc(CN2CCOCC2)c1` [Compound 609, 5-(((3R,5S)-3,5-dimethyl-4-(3-(morpholinomethyl)benzyl)piperazin-1-yl)methyl)-N-hydroxypicolinamide], in that order: above 13.3 fold, 754 nM and above 10000 nM.
For `C[C@@H]1CN(Cc2ccc(C(=O)NO)cc2)C[C@H](C)N1C(=O)c1ccccc1C1=CCC(C)(C)CC1` [Compound 288, 4-(((3R,5S)-4-(4′,4′-dimethyl-2′,3′,4′,5′-tetrahydro-[1,1′-biphenyl]-2-carbonyl)-3,5-dimethylpiperazin-1-yl)methyl)-N-hydroxybenzamide], in that order: 33 fold, 326 nM and 10700 nM.
In the case of `CC(C)N1CC=C(c2ccccc2CN2[C@H](C)CN(Cc3ccc(C(=O)NO)cc3)C[C@@H]2C)CC1` [Compound 484, N-hydroxy-4-(((3R,5S)-4-(2-(1-isopropyl-1,2,3,6-tetrahydropyridin-4-yl)benzyl)-3,5-dimethylpiperazin-1-yl)methyl)benzamide], at human recombinant HDAC6, the “HDAC6 selectivity (fold)” value is reported as 151 fold. Moreover, the values for the concentration for half-maximal inhibition (IC50) at human recombinant HDAC6 and on human recombinant HDAC1 were 130 nM and 19600 nM, respectively.
